Data taken from US11707474B2, “Methods for treating acute myeloid leukemia and related conditions” (GlycoMimetics, Inc., priority 2018, dated 2023).
Where “and” joins values, the source holds several entries; their conditions need not be identical. Equal values may be shown once. Read-outs that look alike come from different tables or passages of the source.

Assays:
[1] = target: T1, E-selectin (Homo sapiens, UniProt P16581); experiment: E-selectin competitive binding assay (sLe^a polyacrylamide conjugate)
T1 construct: fused on or other part: Ig (immunoglobulin Fc) part fused on as a handle for immobilisation
T1 sequence (P16581 22-175 limits assumed): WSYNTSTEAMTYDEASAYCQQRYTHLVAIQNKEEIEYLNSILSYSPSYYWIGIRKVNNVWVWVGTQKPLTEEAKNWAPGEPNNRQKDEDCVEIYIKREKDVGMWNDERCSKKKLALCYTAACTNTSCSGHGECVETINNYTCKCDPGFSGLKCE
Experimental: (§1) The inhibition assay to screen for and characterize glycomimetic antagonists of E-selectin is a competitive binding assay, which allows the determination of IC50 and IC90 values. An E-selectin/Ig chimera was immobilized in 96 well microtiter plates by incubation at 37° C. for 2 hours. To reduce nonspecific binding, bovine serum albumin was added to each well and incubated at room temperature for 2 hours. The plate was washed and serial dilutions of the test compounds were added to the wells in the presence of conjugates of biotinylated, sLe^a polyacrylamide with streptavidin/horseradish peroxidase and incubated for 2 hours at room temperature.
(§2) To determine the amount of sLe^a bound to immobilized E-selectin after washing, the peroxidase substrate, 3, 3′, 5, 5′ tetramethylbenzidine (TMB) was added. After 3 minutes, the enzyme reaction was stopped by the addition of H3PO4, and the absorbance of light at a wavelength of 450 nm was determined. The concentration of a compound of Formula (I), required to inhibit binding by 50% was determined and reported as the IC50. The concentration required to inhibit binding by 90% was determined and reported as the IC90.

[2] = target: T2, E-selectin (Mus musculus, UniProt Q00690); experiment: as above
T2 construct: fused on or other part: Ig (immunoglobulin Fc) part fused on as a handle for immobilisation
T2 sequence (Q00690 22-175 limits assumed): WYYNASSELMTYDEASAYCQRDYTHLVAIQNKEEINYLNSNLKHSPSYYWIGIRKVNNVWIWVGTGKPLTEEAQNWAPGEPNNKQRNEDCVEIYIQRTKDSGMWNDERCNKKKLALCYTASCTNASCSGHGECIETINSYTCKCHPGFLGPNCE
Experimental: as §1, §2

[3] = tested on: acute myeloid leukemia (AML); experiment: Clinical outcomes, newly diagnosed older AML subjects, sodium salt infusion with 7+3; type: in vivo, human; conditions: newly diagnosed AML ≥60 y
Experimental: In this study, 25 human subjects who were newly diagnosed at age 60 or older with acute myeloid leukemia (AML) were selected for this study. Subjects were not disqualified for prior treatment or diagnosis for MDS or CMML.
Each subject received a total of 19 infusions of 10 mg/kg/dose of the compound of Formula (I), administered as the sodium salt, over 10 days with a nominal infusion duration of 20 minutes. The formulation for the infusion solution was as follows: […]
The first dose of a compound of Formula (I) was administered 24 hours±1 hour prior to the first dose of 7+3 (cytarabine and idarubicin) chemotherapy as a sentinel dose to evaluate the effect of the compound of Formula (I) alone (i.e., a single dose of 10 mg/kg the day before the first chemotherapy day). The compound of Formula (I) was then administered every 12 hours±1 hour on chemotherapy days (i.e., 20 mg/kg per day on chemotherapy days) and for two days following the last dose of chemotherapy. […] 7+3 (cytarabine and idarubicin) chemotherapy was administered on Days 2-8 comprising a continuous IV infusion of cytarabine 100 mg/m^2/d over seven days (168 hours, from days 2-8), and idarubicin 12 mg/m^2/d IV for the first three consecutive days ([…], from days 2-4).
(§3) The clinical outcome for each subject was assessed at the time of count recovery following completion of induction chemotherapy. Subjects were assigned to one of four response groups: complete remission (“CR”); complete remission with incomplete count recovery (“CRi”); morphologic leukemia-free state (“MLFS”); persistent disease (“PD”). Complete remission was defined as bone marrow blasts <5%; absence of circulating blasts and blasts with Auer rods; absence of extramedullary disease; ANC ≥1.0×10^9/L and platelets ≥100,000×10^9/L. Complete remission with incomplete recovery was defined as: all CR criteria except for residual neutropenia (<1.0×10^9/L) or thrombocytopenia (<100,000×10^9/L). Morphologic leukemia-free state was defined as: bone marrow blasts <5%; absence of blasts with Auer rods; absence of extramedullary disease; no hematologic recovery required. Persistent disease was defined as: bone marrow blasts >5%.

[4] = tested on: relapsed/refractory type acute myeloid leukemia (AML); experiment: Phase 1 clinical outcomes, relapsed/refractory AML, sodium salt infusion with MEC; type: in vivo; conditions: R/R AML
Experimental: Three cohorts of 6-7 human subjects with relapsed/refractory type acute myeloid leukemia (AML) each received a total of 15 infusions of 5, 10, or 20 mg/kg/dose of the compound of Formula (I), administered as the sodium salt, over 8 days with a nominal infusion duration of 20 minutes. The nominal infusion duration of 20 minutes was constant across cohorts (e.g., a slower infusion rate was used for the administration of the 5 mg/kg/dose arm than for the 10 mg/kg/dose arm). The formulation for the infusion solution was as follows: […]
The first dose of a compound of Formula (I) was administered 24 hours±1 hour prior to the first dose of MEC (mitoxantrone, etoposide, and cytarabine) induction chemotherapy as a sentinel dose to evaluate the effect of the compound of Formula (I) alone (i.e., a single dose of 5, 10, or 20 mg/kg the day before the first chemotherapy day). The compound of Formula (I) was then administered every 12 hours±1 hour on chemotherapy days, starting 2 hours prior to chemotherapy (i.e., 10, 20, or 40 mg/kg per day on chemotherapy days). […] MEC chemotherapy was administered on Days 2-6.
as §3

[5] = tested on: U937; experiment: Systemic U-937 AML mouse survival model; type: in vivo, NOD/SCID mouse
Experimental: A compound of Formula (I) in combination with cytarabine/DNR chemotherapy was evaluated in the systemic U-937 AML NOD/SCID mouse survival model.
The U937 cell line was chosen because the cells express the E-selectin ligand and react with antibody HECA-452. After engraftment, mice were randomized into 4 groups (n=10/group) and treatment was initiated. The groups included a saline control group; a group administered the compound of Formula (I) at 40 mg/kg BID (i.e., 80 mg/kg per day) for 9 days, a group administered cytarabine at 300 mg/kg QD (i.e., 300 mg/kg per day) for 3 days and a single dose of DNR at 3 mg/kg; and a group administered the combined regimen of the compound of Formula (I) and chemotherapy (cytarabine and DNR).

**Q.** How did the IC50 [1] turn out when `CC[C@@H]1CC(C(=O)NCCNC(=O)CCOCCOCCOCCOCCOCCOCCOCCOCCOCCOCCOCCOC)C[C@@H](O[C@@H]2O[C@@H](CO)[C@H](O)C(O[C@@H](CC3CCCCC3)C(=O)O)C2NC(C)=O)C1OC1O[C@@H](C)C(O)[C@H](O)[C@@H]1O` (stereo partly drawn) [compound of Formula (I)] was run?
**A.** The IC50 was 2440 nM and 2400 nM.

**Q.** What about the IC90 [1] of the same molecule?
**A.** Its IC90 is 7535 ng/mL.

**Q.** And the IC90 ([1]; read-out: IC90)?
**A.** The IC90 was 7.54 µg/mL and 5.68 µM.

**Q.** And the IC50 [2]?
**A.** The IC50 was 2450 nM and 2490 nM.

**Q.** And the IC90 [2]?
**A.** The IC90 was 3.7 µM and 4.91 µg/mL.

**Q.** And the “one-year overall survival rate, all subjects” value [3]?
**A.** Its value is 52%.

**Q.** What about the “one-year survival rate, MRD negative subjects” value [3] of the same molecule?
**A.** The value was 60%.

**Q.** What about the “severe oral mucositis rate” value [3] of the same molecule?
**A.** The value was 0%.

**Q.** And the median event-free survival ([3]; 95% CI 3-12.6)?
**A.** Its median event-free survival is 9.2 months.

**Q.** What about the median overall survival ([3]; 95% CI lower 9.9) of the same molecule?
**A.** The median overall survival was 12.6 months.

**Q.** And the “Oral Mucositis Events Grades 3/4” value ([3]; N = 25)?
**A.** Its value is 0 n.

**Q.** And the “CR with incomplete recovery (CRi)” value ([4]; 10 mg/kg/dose)?
**A.** The value was 0 n.

**Q.** And the “Morphologic Leukemia-Free State (MLFS)” value ([4]; 10 mg/kg/dose)?
**A.** The value was 0 n.

**Q.** And the “CR with incomplete recovery (CRi)” value ([4]; 20 mg/kg/dose)?
**A.** The value was 0 n.

**Q.** And the “Morphologic Leukemia-Free State (MLFS)” value ([4]; 20 mg/kg/dose)?
**A.** Its value is 0 n.

**Q.** And the “All-Cause Mortality 30 days” value ([4]; Phase 1)?
**A.** The value was 0 n.

**Q.** What about the “CR/CRi Rate: Cytogenetics (SWOG) Favorable risk” value ([4]; Phase 1) of the same molecule?
**A.** Its value is 0 n.

**Q.** And the “CR/CRi Rate: FLT3-ITD mutated” value ([4]; Phase 1)?
**A.** The value was 0 n.

**Q.** What about the “CR/CRi Rate: Relapsed ≥12-<24 months” value ([4]; Phase 1) of the same molecule?
**A.** Its value is 0 n.

**Q.** What about the “Partial Remission (PR)” value ([4]; Phase 1) of the same molecule?
**A.** The value was 0 n.

**Q.** And the “CR Rate: Cytogenetics Favorable risk” value ([4]; Phase 1 subgroup)?
**A.** Its value is 0 n.

**Q.** What about the survival ([5]; 40 mg/kg BID 9 days alone) of the same molecule?
**A.** The survival was “does not extend survival beyond saline control”.

**Q.** And the “median survival time (MST)” value ([5]; 40 mg/kg BID 9 days combined with cytarabine/DNR)?
**A.** Its value is “greater than 120 days”.

**Q.** What about the “animals surviving to the end of the study” value ([5]; 40 mg/kg BID 9 days combined with cytarabine/DNR, n=10/group) of the same molecule?
**A.** Its value is “five”.
